In PubChem BioAssay (NCI):
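At the GI50, growth is halved. TGI marks complete inhibition of growth.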

What was measured:
Experiment in all cases: DTP human tumour cell line panel, 384-well format
MCF7 breast = test system: MCF7 breast
M14 melanoma = test system: M14 melanoma
MOLT-4 leukemia = test system: MOLT-4 leukemia
NCI-H522 lung = test system: NCI-H522 lung
MDA-MB-231 breast = test system: MDA-MB-231 breast
OVCAR-4 ovarian = test system: OVCAR-4 ovarian
COLO 205 colon = test system: COLO 205 colon
U251 glioblastoma = test system: U251 glioblastoma
BT-549 breast = test system: BT-549 breast
HS 578T breast = test system: HS 578T breast
HOP-92 NSCLC = test system: HOP-92 NSCLC
SK-MEL-5 melanoma = test system: SK-MEL-5 melanoma
SK-MEL-28 melanoma = test system: SK-MEL-28 melanoma
DU-145 prostate = test system: DU-145 prostate
TK-10 renal = test system: TK-10 renal
OVCAR-3 ovarian = test system: OVCAR-3 ovarian
HCC-2998 colon = test system: HCC-2998 colon
NCI-H23 lung = test system: NCI-H23 lung
PC-3 prostate = test system: PC-3 prostate
UACC-257 melanoma = test system: UACC-257 melanoma
T-47D breast = test system: T-47D breast
LOX IMVI melanoma = test system: LOX IMVI melanoma
MDA-MB-468 breast = test system: MDA-MB-468 breast
SNB-19 CNS = test system: SNB-19 CNS
NCI/ADR-RES ovarian = test system: NCI/ADR-RES ovarian
NCI-H226 lung = test system: NCI-H226 lung
SF-268 CNS = test system: SF-268 CNS
K-562 leukemia = test system: K-562 leukemia
HCT-116 colon = test system: HCT-116 colon
SN12C renal = test system: SN12C renal
HT29 colon = test system: HT29 colon
MALME-3M melanoma = test system: MALME-3M melanoma
HOP-62 NSCLC = test system: HOP-62 NSCLC
SW-620 colon = test system: SW-620 colon
UO-31 renal = test system: UO-31 renal
IGROV1 ovarian = test system: IGROV1 ovarian
SR leukemia = test system: SR leukemia
KM12 colon = test system: KM12 colon
HL-60(TB) leukemia = test system: HL-60(TB) leukemia
SK-OV-3 ovarian = test system: SK-OV-3 ovarian
ACHN renal = test system: ACHN renal
RXF 393 renal = test system: RXF 393 renal
OVCAR-5 ovarian = test system: OVCAR-5 ovarian
UACC-62 melanoma = test system: UACC-62 melanoma
EKVX NSCLC = test system: EKVX NSCLC
SK-MEL-2 melanoma = test system: SK-MEL-2 melanoma
A498 renal = test system: A498 renal
CCRF-CEM leukemia = test system: CCRF-CEM leukemia
CAKI-1 renal = test system: CAKI-1 renal
SNB-75 CNS = test system: SNB-75 CNS
NCI-H460 NSCLC = test system: NCI-H460 NSCLC
NCI-H322M lung = test system: NCI-H322M lung
786-0 renal = test system: 786-0 renal
SF-295 CNS = test system: SF-295 CNS
MDA-MB-435 melanoma = test system: MDA-MB-435 melanoma
RPMI-8226 leukemia = test system: RPMI-8226 leukemia
HCT-15 colon = test system: HCT-15 colon
A549 NSCLC = test system: A549 NSCLC
SF-539 CNS = test system: SF-539 CNS

With `CN1CCN(c2ccc3nc(-c4c5cccccc-5[nH]c4=O)[nH]c3c2)CC1` the GI50 (MCF7 breast) was 7.26 µM, the TGI (MCF7 breast) was 21.3 µM and the GI50 (M14 melanoma) was 9.46 µM. It also gave a TGI (M14 melanoma) of 21.4 µM, a GI50 (MOLT-4 leukemia) of 1.8 µM and a TGI (MOLT-4 leukemia) of 3.2 µM. It also gave a GI50 (NCI-H522 lung) of 9.06 µM, a TGI (NCI-H522 lung) of 29.6 µM and a GI50 (MDA-MB-231 breast) of 5.78 µM. For the same compound, the TGI (MDA-MB-231 breast) was 22.1 µM, the GI50 (OVCAR-4 ovarian) was 10.3 µM and the TGI (OVCAR-4 ovarian) was 38.6 µM. It also gave a GI50 (COLO 205 colon) of 5.27 µM, a TGI (COLO 205 colon) of 17.7 µM and a GI50 (U251 glioblastoma) of 5.62 µM. For the same compound, the TGI (U251 glioblastoma) was 22.2 µM, the GI50 (BT-549 breast) was 4.48 µM and the TGI (BT-549 breast) was 14.6 µM. The GI50 (HS 578T breast) was 4.73 µM, the TGI (HS 578T breast) was 18.4 µM and the GI50 (HOP-92 NSCLC) was 3.99 µM. It also gave a TGI (HOP-92 NSCLC) of 16.7 µM, a GI50 (SK-MEL-5 melanoma) of 8.18 µM and a TGI (SK-MEL-5 melanoma) of 21 µM. The GI50 (SK-MEL-28 melanoma) was 15.9 µM, the TGI (SK-MEL-28 melanoma) was 35 µM and the GI50 (DU-145 prostate) was 6.01 µM. It also gave a TGI (DU-145 prostate) of 26.7 µM, a GI50 (TK-10 renal) of 4.51 µM and a TGI (TK-10 renal) of 19.3 µM. For the same compound, the GI50 (OVCAR-3 ovarian) was 12.3 µM, the TGI (OVCAR-3 ovarian) was 28.2 µM and the GI50 (HCC-2998 colon) was 7.05 µM. For the same compound, the TGI (HCC-2998 colon) was 29.1 µM, the GI50 (NCI-H23 lung) was 7.46 µM and the TGI (NCI-H23 lung) was 26.8 µM. It also gave a GI50 (PC-3 prostate) of 6.81 µM, a TGI (PC-3 prostate) of 25.3 µM and a GI50 (UACC-257 melanoma) of 9.05 µM. The TGI (UACC-257 melanoma) was 21.4 µM, the GI50 (T-47D breast) was 16.9 µM and the TGI (T-47D breast) was 37.9 µM. It also gave a GI50 (LOX IMVI melanoma) of 10.7 µM, a TGI (LOX IMVI melanoma) of 22.7 µM and a GI50 (MDA-MB-468 breast) of 5.61 µM. It also gave a TGI (MDA-MB-468 breast) of 21 µM, a GI50 (SNB-19 CNS) of 10.3 µM and a TGI (SNB-19 CNS) of 39.2 µM. The GI50 (NCI/ADR-RES ovarian) was 16.7 µM, the TGI (NCI/ADR-RES ovarian) was 47.1 µM and the GI50 (NCI-H226 lung) was 4.07 µM. The TGI (NCI-H226 lung) was 18 µM, the GI50 (SF-268 CNS) was 10.3 µM and the TGI (SF-268 CNS) was 31.8 µM. The GI50 (K-562 leukemia) was 4.85 µM, the TGI (K-562 leukemia) was 16.7 µM and the GI50 (HCT-116 colon) was 12.1 µM. For the same compound, the TGI (HCT-116 colon) was 25.3 µM, the GI50 (SN12C renal) was 3.39 µM and the TGI (SN12C renal) was 17.8 µM. The GI50 (HT29 colon) was 6.92 µM, the TGI (HT29 colon) was 23.9 µM and the GI50 (MALME-3M melanoma) was 11 µM. It also gave a TGI (MALME-3M melanoma) of 23.1 µM, a GI50 (HOP-62 NSCLC) of 4.43 µM and a TGI (HOP-62 NSCLC) of 20.9 µM. It also gave a GI50 (SW-620 colon) of 6.59 µM, a TGI (SW-620 colon) of 24.9 µM and a GI50 (UO-31 renal) of 6.3 µM. It also gave a TGI (UO-31 renal) of 19.2 µM, a GI50 (IGROV1 ovarian) of 3.84 µM and a TGI (IGROV1 ovarian) of 15.6 µM. For the same compound, the GI50 (SR leukemia) was 2.17 µM, the TGI (SR leukemia) was 4.45 µM and the GI50 (KM12 colon) was 0.371 µM. The TGI (KM12 colon) was 10.7 µM, the GI50 (HL-60(TB) leukemia) was 3.83 µM and the TGI (HL-60(TB) leukemia) was 12.4 µM. The GI50 (SK-OV-3 ovarian) was 5.76 µM, the TGI (SK-OV-3 ovarian) was 23.7 µM and the GI50 (ACHN renal) was 4.63 µM. It also gave a TGI (ACHN renal) of 16.8 µM, a GI50 (RXF 393 renal) of 2.7 µM and a TGI (RXF 393 renal) of 8.68 µM. For the same compound, the GI50 (OVCAR-5 ovarian) was 10.5 µM, the TGI (OVCAR-5 ovarian) was 33.4 µM and the GI50 (UACC-62 melanoma) was 8.99 µM. It also gave a TGI (UACC-62 melanoma) of 21.2 µM, a GI50 (EKVX NSCLC) of 10.1 µM and a TGI (EKVX NSCLC) of 33.3 µM. The GI50 (SK-MEL-2 melanoma) was 28.6 µM, the TGI (SK-MEL-2 melanoma) was 44.4 µM and the GI50 (A498 renal) was 12.7 µM. The TGI (A498 renal) was 26.3 µM, the GI50 (CCRF-CEM leukemia) was 3.47 µM and the TGI (CCRF-CEM leukemia) was 10.7 µM. For the same compound, the GI50 (CAKI-1 renal) was 5.23 µM, the TGI (CAKI-1 renal) was 18.2 µM and the GI50 (SNB-75 CNS) was 3.71 µM. The TGI (SNB-75 CNS) was 17.6 µM, the GI50 (NCI-H460 NSCLC) was 3.65 µM and the TGI (NCI-H460 NSCLC) was 13.8 µM. It also gave a GI50 (NCI-H322M lung) of 10.4 µM, a TGI (NCI-H322M lung) of 33.6 µM and a GI50 ([…]-0 renal) of 7.07 µM. It also gave a TGI (786-0 renal) of 28.1 µM, a GI50 (SF-295 CNS) of 12.2 µM and a TGI (SF-295 CNS) of 32 µM. The GI50 (MDA-MB-435 melanoma) was 11.9 µM, the TGI (MDA-MB-435 melanoma) was 31.9 µM and the GI50 (RPMI-8226 leukemia) was 10 µM. The TGI (RPMI-8226 leukemia) was 21.7 µM, the GI50 (HCT-15 colon) was 7.04 µM and the TGI (HCT-15 colon) was 26.4 µM. For the same compound, the GI50 (A549 NSCLC) was 6.49 µM, the TGI (A549 NSCLC) was 38.1 µM and the GI50 (SF-539 CNS) was 3.66 µM. For the same compound, the TGI (SF-539 CNS) was 13.2 µM.
